# Test system: gene expression in Col-0 seedling shoots
# Experiment: Microarray analysis (ATH1 Affymetrix) after BL or abrasin treatment
# Type: in vivo, Arabidopsis
# Conditions: 30 min
# Protocol: FIG. 14: Clustering of gene expression profiles by QT-clust analysis. Clusters illustrating the major patterns of the data sets. Points: BIK-30: 30 μM abrasin 30 min; BL-30: 1 μM brassinolide 30 min; DMSO-30: control DMSO 30 min; BIK-120: 30 μM abrasin 120 min; BL-120: 1 μM brassinolide 120 min; DMSO-120: control DMSO 120 min.
# Col-0 seeds were germinated vertically on ½ MS medium for 7 days under 16 h light/8 h dark cycles. The seedlings were overlaid with liquid ½ MS medium containing 1 μM brassinolide (BL, Fuji Chemical Industries, Ltd., Toyama, Japan), 30 μM abrasin (BIK, ChemBridge Corporation) and DMSO and treated for 30 and 120 min. The shoot parts were collected for RNA isolation. All sampling points were performed in three independent experiments. RNA was extracted using RNeasy kit (Qiagene). […] total RNA per array was used to hybridise the ATH1 Affymetrix Arabidopsis arrays according to standard procedure. The overrepresentation analyses were performed using BiNGO software (Maere et al., 2005).
# We performed a microarray analysis using the Arabidopsis whole genome chip (Affymetix) to determine whether abrasin activated the expression of BR-inducible genes at transcriptional level. Wild-type Col-0 seedlings were exposed to 1 μM BL, 30 μM ABRASIN and DMSO (mock-treatment) for two time points (30 min and 120 min) and the shoot parts were collected for RNA isolation. The analysis of the variance of the normalized gene expression data took in account the variability parameters affecting the expression level: type of hormone treatment, duration of treatment and the interaction between these two.
smiles,measurement,setting,value
"CC(C)[C@H](C)[C@@H](O)[C@H](O)[C@@H](C)[C@H]1CC[C@H]2[C@@H]3COC(=O)[C@H]4C[C@H](O)[C@H](O)C[C@]4(C)[C@H]3CC[C@]12C [BL, brassinolide, reference compound]",Fold-change AT4G16563 aspartyl protease family protein,,1.44
same,Fold-change AT4G16670 expressed protein,,0.78
same,Fold-change AT4G16780 homeobox-leucine zipper protein 4 (HAT4)/HD-ZIP protein,,0.62
same,Fold-change AT4G17250 expressed protein,,0.86
same,Fold-change AT4G17460 homeobox-leucine zipper protein 1 (HAT1)/HD-ZIP protein 1,,0.54
same,Fold-change AT4G21510 F-box family protein,,1.47
same,Fold-change AT4G23030 MATE efflux protein-related,,1.37
same,Fold-change AT4G23070 rhomboid family protein,,1.02
same,Fold-change AT4G23810 WRKY family transcription factor,,0.71
same,"Fold-change AT4G24160 hydrolase, alpha/beta fold family protein",,1.13
same,Fold-change AT4G25620 hydroxyproline-rich glycoprotein family protein,,0.87
same,Fold-change AT4G25780 pathogenesis-related protein,,0.74
same,Fold-change AT4G27970 C4-dicarboxylate transporter/malic acid transport family protein,,1.20
same,Fold-change AT4G28240 wound-responsive protein-related,,0.77
same,"Fold-change AT4G28490 leucine-rich repeat transmembrane protein kinase, putative",,1.00
same,Fold-change AT4G28703 expressed protein,,0.85
same,Fold-change AT4G28780 GDSL-motif lipase/hydrolase family protein,,1.25
same,Fold-change AT4G29070 expressed protein,,0.90
same,Fold-change AT4G30080 transcriptional factor B3 family protein,,0.94
same,Fold-change AT4G31020 expressed protein,,1.53
same,Fold-change AT4G32280 auxin-responsive AUX/IAA family protein (IAA29),,0.66
same,Fold-change AT4G33050 calmodulin-binding family protein,,0.99
same,Fold-change AT4G33700 CBS domain-containing protein,,0.81
same,Fold-change AT4G34610 homeodomain-containing protein,,0.86
same,Fold-change AT4G36110 auxin-responsive protein,,2.35
same,Fold-change AT4G36780 brassinosteroid signalling positive regulator-related,,0.71
same,Fold-change AT4G37240 expressed protein,,1.23
same,Fold-change AT4G37290 expressed protein,,0.90
same,Fold-change AT4G37590 phototropic-responsive NPH3 family protein,,0.90
same,Fold-change AT4G38840 auxin-responsive protein (SAUR14),,1.26
same,Fold-change AT4G38850 auxin-responsive protein (SAUR-AC1),,1.43
same,Fold-change AT4G38860 auxin-responsive protein (SAUR16),,1.38
same,Fold-change AT4G39400 brassinosteroid insensitive 1 (BRI1),,0.96
same,Fold-change AT5G02020 expressed protein,,0.99
same,Fold-change AT5G05690 cytochrome P450 90A1 (CYP90A1) (CYP90) (CPD),,0.93
same,Fold-change AT5G07690 myb family transcription factor (MYB29),,0.82
same,Fold-change AT5G08130 basic helix-loop-helix (bHLH) family protein (BIM2),,0.79
same,Fold-change AT5G12050 expressed protein,,0.73
same,Fold-change AT5G13180 no apical meristem (NAM) family protein,,1.07
same,Fold-change AT5G13740 sugar transporter family protein,,0.77
same,Fold-change AT5G14730 expressed protein,,0.80
same,Fold-change AT5G16200 50S ribosomal protein-related,,0.70
same,Fold-change AT5G16980 NADP-dependent oxidoreductase,,1.15
same,Fold-change AT5G18750 DNAJ heat shock N-terminal domain-containing protein,,1.03
same,Fold-change AT5G19200 short-chain dehydrogenase/reductase (SDR) family protein,,1.22
same,Fold-change AT5G19340 expressed protein,,0.68
same,Fold-change AT5G24030 C4-dicarboxylate transporter/malic acid transport family protein,,1.43
same,Fold-change AT5G24660 expressed protein,,1.33
same,Fold-change AT5G25240 expressed protein,,1.21
same,Fold-change AT5G25930 leucine-rich repeat family protein,,0.98
same,Fold-change AT5G27350 sugar-porter family protein 1 (SFP1),,1.11
same,Fold-change AT5G27670 histone H2A,,0.86
same,Fold-change AT5G38310 expressed protein,,0.98
same,"Fold-change AT5G38990; AT5G39000 [AT5G38990, protein kinase family protein",,0.94
same,Fold-change AT5G39050 transferase family protein,,1.35
same,Fold-change AT5G39610 no apical meristem (NAM) family protein,,0.65
same,Fold-change AT5G39970 expressed protein,,1.08
same,Fold-change AT5G42830 transferase family protein,,0.87
same,Fold-change AT5G47370 homeobox-leucine zipper protein 2 (HAT2),,0.94
same,Fold-change AT5G48070 putative xyloglucan endotransglycosylase/hydrolase,,1.12
same,Fold-change AT5G48540 33 kDa secretory protein-related,,1.01
same,Fold-change AT5G51550 phosphate-responsive 1 family protein,,0.86
same,"Fold-change AT5G54490 calcium-binding EF-hand protein, putative",,0.37
same,Fold-change AT5G54860 integral membrane transporter family protein,,0.92
same,Fold-change AT5G55970 zinc finger (C3HC4-type RING finger) family protein,,1.03
same,Fold-change AT5G56980 expressed protein,,0.75
same,Fold-change AT5G57190 phosphatidylserine decarboxylase,,1.04
same,Fold-change AT5G57780 expressed protein,,0.41
same,Fold-change AT5G59080 expressed protein,,0.62
same,Fold-change AT5G60200 Dof-type zinc finger domain-containing protein,,0.82
same,Fold-change AT5G60270 lectin protein kinase family protein,,1.03
same,Fold-change AT5G60630 expressed protein,,0.94
same,Fold-change AT5G61600 encodes a member of the ERF (ethylene response factor),,0.46
same,Fold-change AT5G62360 invertase/pectin methylesterase inhibitor family protein,,0.92
same,Fold-change AT5G65310 homeobox-leucine zipper protein 5 (HB-5)/HD-ZIP transcription factor 5,,0.91
same,Fold-change AT5G66420 expressed protein,,1.04
same,Fold-change AT5G66590 allergen V5/Tpx-1-related family protein,,1.21
same,Fold-change AT5G67450 zinc finger (C2H2 type) protein 1 (AZF1),,1.79
same,Fold-change of gene AT4G16140 (proline-rich family protein),"245479_at, Cluster 6",0.83
same,Fold-change of gene AT4G15260 (UDP-glucoronosyl/UDP-glucosyl transferase family protein),"245543_at, Cluster 7",1.01
same,"Fold-change of gene AT5G09440 (phosphate-responsive protein, putative)","245885_at, Cluster 5",0.58
same,Fold-change of gene AT1G77380 (amino acid carrier),"246389_at, Cluster 10",0.94
same,Fold-change of gene AT5G15740 (expressed protein),"246516_at, Cluster 5",0.95
same,Fold-change of gene AT5G65300 (expressed protein),"247177_at, Cluster 5",0.25
same,Fold-change of gene AT5G64890 (expressed protein),"247205_at, Cluster 10",0.97
same,Fold-change of gene AT5G63790 (no apical meristem (NAM) family protein),"247351_at, Cluster 9",0.49
same,Fold-change of gene AT5G62630 (expressed protein),"247444_at, Cluster 7",1.26
same,Fold-change of gene AT5G60850 (Dof-type zinc finger domain-containing protein),"247601_at, Cluster 10",1.09
same,Fold-change of gene AT5G59510 (expressed protein),"247704_at, Cluster 9",0.98
same,Fold-change of gene AT5G58660 (oxidoreductase. 2OG-Fe(II) oxygenase family protein),"247774_at, Cluster 5",1.08
same,Fold-change of gene AT5G54120 (expressed protein),"248190_at, Cluster 5",1.04
same,Fold-change of gene AT5G54130 (calcium-binding EF hand family protein),"248191_at, Cluster 5",1.03
same,Fold-change of gene AT5G52900 (expressed protein),"248282_at, Cluster 6",0.74
same,Fold-change of gene AT5G49100 (expressed protein),"248646_at, Cluster 9",0.70
same,Fold-change of gene AT5G18060 (auxin-responsive protein),"250012_x_at, Cluster 6",0.76
same,Fold-change of gene AT5G09800 (U-box domain-containing protein),"250493_at, Cluster 9",0.80
same,Fold-change of gene AT5G08565 (expressed protein),"250537_at, Cluster 8",1.06
same,Fold-change of gene AT5G03670 (expressed protein),"250907_at, Cluster 5",0.60
same,Fold-change of gene AT5G01740 (expressed protein),"251072_at, Cluster 5",0.53
same,Fold-change of gene AT3G63380 (calcium-transporting ATPase),"251176_at, Cluster 10",0.87
same,Fold-change of gene AT3G60690 (auxin-responsive family protein),"251342_at, Cluster 9",0.87
same,Fold-change of gene AT3G45610 (Dof-type zinc finger domain),"252586_at, Cluster 10",0.90
same,Fold-change of gene AT3G44610 (protein kinase family protein),"252646_at, Cluster 5",1.05
same,Fold-change of gene AT4G34760 (auxin-responsive family protein),"253255_at, Cluster 6",0.81
same,Fold-change of gene AT4G34138 (UDP-glucoronosyl/UDP-glucosyl transferase family protein),"253281_at, Cluster 7",1.17
same,Fold-change of gene AT4G31910 (transferase family protein),"253483_at, Cluster 5",1.15
same,Fold-change of gene AT4G30410 (expressed protein),"253617_at, Cluster 5",0.97
same,Fold-change of gene AT4G30450 (glycine-rich protein),"253629_at, Cluster 5",0.88
same,Fold-change of gene AT4G26200 (1-aminocyclopropane-1-carboxylate synthase),"253999_at, Cluster 9",0.29
same,Fold-change of gene AT4G03400 (auxin-responsive GH3 family protein),"255403_at, Cluster 6",0.59
same,Fold-change of gene AT4G02700 (sulfate transporter),"255443_at, Cluster 7",1.69
same,Fold-change of gene AT1G22190 (AP2 domain-containing transcription factor),"255926_at, Cluster 8",0.83
same,Fold-change of gene AT1G66140 (zinc finger (C2H2 type) family protein),"256528_at, Cluster 6",0.72
same,Fold-change of gene AT3G25655 (expressed protein),"256762_at, Cluster 8",0.98
same,"Fold-change of gene AT3G21420 (oxidoreductase, 2OG-Fe(II) oxygenase family protein)","256818_at, Cluster 7",1.11
same,Fold-change of gene AT3G18280 (protease inhibitor/seed storage/lipid transfer protein),"257066_at, Cluster 5",1.06
same,Fold-change of gene AT1G29440 (auxin-responsive family protein),"257506_at, Cluster 6",0.69
same,"Fold-change of gene AT3G29200 (chorismate mutase, chloroplast (CM1))","257746_at, Cluster 5",0.89
same,Fold-change of gene AT1G13260 (DNA-binding protein RAV1 (RAV1)),"259364_at, Cluster 8",0.61
same,Fold-change of gene AT1G29500 (auxin-responsive protein),"259773_at, Cluster 6",0.79
same,Fold-change of gene AT1G29510 (auxin-responsive protein),"259783_at, Cluster 6",0.77
same,Fold-change of gene AT1G29450 (auxin-responsive protein),"259784_at, Cluster 6",0.75
same,Fold-change of gene AT1G29460 (auxin-responsive protein),"259787_at, Cluster 6",0.75
same,"Fold-change of gene AT1G76690; AT1G76680 ([AT1G76690, 12-oxophytodienoate reductase (OPR2))","259875_s_at, Cluster 7",0.85
same,Fold-change of gene AT1G76620 (expressed protein),"259985_at, Cluster 8",0.94
same,Fold-change of gene AT1G63720 (expressed protein),"260243_at, Cluster 10",0.74
same,Fold-change of gene AT1G48100 (glycoside hydrolase family 28 protein),"260727_at, Cluster 8",1.06
same,Fold-change of gene AT1G12200 (flavin-containing monooxygenase family protein),"261023_at, Cluster 7",1.11
same,Fold-change of gene AT1G12845 (expressed protein),"261203_at, Cluster 6",0.98
same,Fold-change of gene AT1G15550 (gibberellin 3-beta-dioxygenase),"261768_at, Cluster 6",0.77
same,Fold-change of gene AT1G80840 (WRKY family transcription factor),"261892_at, Cluster 9",0.27
same,Fold-change of gene AT1G80080 (leucine-rich repeat family protein),"262040_at, Cluster 6",0.77
same,Fold-change of gene AT1G80130 (expressed protein),"262050_at, Cluster 8",1.04
same,Fold-change of gene AT1G21680 (expressed protein),"262505_at, Cluster 10",1.12
same,Fold-change of gene AT1G34245 (expressed protein),"262543_at, Cluster 6",1.14
same,Fold-change of gene AT1G78460 (SOUL heme-binding family protein),"263126_at, Cluster 7",0.88
same,"Fold-change of gene AT1G78820; AT1G78830 ([AT1G78820, curculin-like (mannose-binding) lectin family protein)","264279_s_at, Cluster 7",0.88
